# Literature values as cited in patent publication US5208032A, “Increasing the growth of turkeys using implant of 19-nortestosterone” (Rutgers, The State University of New Jersey, priority 1992, dated 1993).
# Legend:
# [1] = tested on: testosterone antiserum; settings: manufacturer statement; cited from earlier work
# [2] = mice, Innovative Research pellets, 21 days; cited from earlier work
# [3] = tested on: 5-alpha-DHT anti-serum; settings: antibody provided by Dr. Alan L. Johnson; cited from earlier work
smiles,measurement,setting,value
"C[C@]12CC[C@@H](O)C[C@@H]1CC[C@@H]1[C@@H]2CC[C@]2(C)[C@@H](O)CC[C@@H]12 [5-alpha-androstane-3-alpha,17-beta-diol]",cross-reaction with Immuchem testosterone antiserum,[1],less than 0.01%
C[C@]12CC[C@@H]3c4ccc(O)cc4CC[C@H]3[C@@H]1CC[C@@H]2O [17 beta-estradiol],maintained blood levels,[2],20 to 30 ng/mL
"C[C@]12CCC(=O)C=C1CC[C@@H]1[C@@H]2CC[C@]2(C)C(=O)CC[C@@H]12 [4-adrosten-3,17-dione]",reaction with 5-alpha-DHT anti-serum (Ford's-F/1),[3],11.4%
same,cross-reaction with Immuchem testosterone antiserum,[1],0.56%
